Data on seven compounds can be found in US20220062391A1, “ENHANCING EPITHELIAL OR ENDOTHELIAL BARRIER FUNCTION” (UNIVERSITY OF ROCHESTER, priority 2019, published 2022).

For one experiment, the system named is mouse lungs. Kind of experiment: Alveolar fluid clearance (AFC) in live mice. The class given is in vivo. The settings on record: two days after gene transfer, or 10^−8 mol/L in the instillation solution. The method, then:
(§1) Male C57BL/6 mice (9-11 weeks) were anesthetized with isoflurane and 100 μg of each individual plasmid were delivered in 50 μl of 10 mM Tris-HCl (pH 8.0), 1 mM EDTA, and 140 mM NaCl, to mouse lungs by aspiration (when both β1 and MRCKα were delivered, 100 μg of each were administered prior to electroporation) as previously described in Lin, X., et al., Gene Ther 23: 489-99. Eight, 10 msec square wave pulses at a field strength of 200 V/cm were immediately applied using cutaneous electrophysiology electrodes (MEDTRONIC, Redmond, Wash.) placed on the mouse chest with an ECM830 electroporator (BTX, HARVARD […], Holliston, Mass.). […]
The method used in this study was performed in live mice as previously described in Lin, X., et al., Gene Ther 23: 489-99 and Mutlu, G. M., et al., Circ Res 94: 1091-100. […] Protein concentration in the aspirate was assessed using a Bradford assay (BIO-RAD LABORATORIES, Hercules, Calif.) and AFC was calculated using following equation: AFC=1−(C0/C30), where C0, is the protein concentration of the instillate before instillation, and C30 is the protein concentration of the sample obtained at the end of 30 minutes of mechanical ventilation. Clearance is expressed as a percentage of total instilled volume cleared/30 minutes. […]

Experiment [1] deals with ATI cells. Kind of experiment: TEER of alveolar epithelial monolayers on transwell plates. It counts as cell-based, rat. The method, then:
Primary rat alveolar epithelial type II cells were isolated using an IgG-panning approach as described by Dobbs (74). Briefly, lungs from Sprague Dawley rats (200-250 g) were surgically removed and perfused, lavaged, and treated with 1 mg/ml of elastase (WORTHINGTON BIOCHEMICAL, Lakewood, N.J.) to release the epithelial cells. Next, lung lobes were separated, cut, minced, filtered and spin down at 1500 rpm for 15 minutes. The cells were resuspended with DMEM without FBS and transferred into two IgG plates. After incubation at 37° C. for one hour, non-adhered cells (predominately ATII cells) were transferred to a new tube and centrifuged at 1500 rpm for 15 minutes. The cells were resuspended in DMEM containing 10% FBS and plated on fibronectin coated plates. To coat the plates with fibronectin, 20 μg/ml of fibronectin from bovine plasma (F1141, SIGMA-ALDRICH, St. Louis, Mo.) was added to 100 mm culture plates (using 3 ml) or the upper chamber of the transwell plates (using 400 μl). Plates were left at 37° C. for 3 hours. Residual solution was removed, and plates were dried in a tissue culture hood for at least 30 minutes before cells were added. 16HBE14o-human bronchial epithelial cells were cultured in Dulbecco's modified Eagle's medium as previously reported (18).
Prior to the assay, cells cultured on 12-well transwell plates (12 mm transwell with 0.4 μm pore polyester membrane insert; CORNING, Corning, N.Y.) were moved to the tissue culture hood for 15 minutes to allow the medium equilibrate to room temperature. TEER was measured using an epithelial voltmeter (EVOM2; WORLD PRECISION INSTRUMENTS, Sarasota, Fla.). Three readings were recorded and averaged for each well. To calculate TEER, the resistance of the fibronectin-coated insert without cells (blank resistance) was subtracted from the measured resistance, then multiplied by 1.12 cm^2 to account for the surface area of the insert.

Experiment [2] concerns ATI cells. Kind of experiment: Western blot of tight junction proteins in transfected ATI cells. The class given is cell-based, rat. Conditions: 24 hours. The method, then:
(§2) Primary rat alveolar epithelial type II cells were isolated using an IgG-panning approach as described by Dobbs (74). Briefly, lungs from Sprague Dawley rats (200-250 g) were surgically removed and perfused, lavaged, and treated with 1 mg/ml of elastase (WORTHINGTON BIOCHEMICAL, Lakewood, N.J.) to release the epithelial cells. Next, lung lobes were separated, cut, minced, filtered and spin down at 1500 rpm for 15 minutes. The cells were resuspended with DMEM without FBS and transferred into two IgG plates. After incubation at 37° C. for one hour, non-adhered cells (predominately ATII cells) were transferred to a new tube and centrifuged at 1500 rpm for 15 minutes. The cells were resuspended in DMEM containing 10% FBS and plated on fibronectin coated plates. […]
(§3) Cells were lysed with reporter lysis buffer (lx, PROMEGA), supplemented with protease inhibitor (COMPLETE, Mini, EDTA-free tablets; ROCHE, Basel, Switzerland) and phosphatase inhibitor (PHOSSTOP Phosphatase Inhibitor Cocktail; ROCHE, Basel, Switzerland). […] After incubation with secondary antibody and development, bands were detected on film (BIOMAX MR film; […] HEALTH, Rochester, N.Y.) or using the CHEMIDOC IMAGING SYSTEM (BIO-RAD, Hercules, Calif.) and quantified using the IMAGE STUDIO™ LITE software (LI-COR, Lincoln, Nebr.) or the IMAGE LAB SOFTWARE (BIO-RAD, Hercules, Calif.).
Background: In western blotting, separated proteins are transferred to a membrane and probed.

Experiment [3] relates to LPS-injured lungs. The experiment is described as follows: Pulmonary permeability by Evan's blue dye leakage. It counts as in vivo, mouse. Conditions: LPS 5 mg/kg intratracheal, compared with naïve mice. How it is done:
as §1, with “Mass.). All LPS-challenged mice received 5 mg/kg of LPS (Escherichia coli 055:B5, 15,000,000 endotoxin units/mg protein; SIGMA-ALDRICH, St. Louis, Mo.) in 50 μl of phosphate-buffered saline (PBS) by aspiration, one day before gene transfer (n=5-11 mice/group).” for “Mass.).”
Pulmonary permeability was measured by Evan's blue dye (EBD) leakage from blood into airways (Baluk, P., et al., Br J Pharmacol 126: 522-8 and Mammoto, A., et al., Nat Commun 4: 1759). […] 24 hrs later, EBD was extracted in formamide (FISHER […]) at 37° C. for 24 hrs and quantified by measuring spectrophotometrically at 620 nm and 740 nm, correcting by using formula E620 (EBD)=E620−(1.426×E740+0.030) (Standiford, T. J., et al., J Immunol 155: 1515-24).

The subject of experiment [4] is ATI cells. Kind of experiment: Permeability to fluorescent dextran tracers. It counts as cell-based, rat. Conditions: 1 μg/ml. The method, then: Permeability to fluorescent tracers was measured using a modified protocol previous described (76). […] Five hundred microliters of freshly prepared solution containing 100 μg/mL of 40 kD FITC-dextran and 100 μg/mL of 31(D Texas Red-dextran were added to the apical compartment. One thousand microliters of P buffer was added to the bottom chamber. After 2 hours incubation at 37° C., 100 μl of the basal medium was collected and the fluorescence of the transported dextran was measured with a SPECTRAMAX M5 multi-mode microplate reader (MOLECULAR DEVICES, San Jose, Calif.). The excitation wavelength and emission wavelength are 492 nm and 520 nm for FITC and 596 nm and 615 nm for Texas-red, respectively. The quantity of tracer was calculated by comparison with a standard curve. A permeability coefficient was determined using the following equation (77): Pc (cm/min)=V/(A×Co)×(C/T) where V is volume in the lower compartment (1 ml), A is the surface area of the membrane (1.12 cm^2 for the 12-well transwell used here), Co is the dextran concentration in the upper compartment at time 0 (0.1 mg/ml), and C is the dextran concentration in the lower compartment at time T of sampling (2 hours).

Experiment [5] deals with LPS-injured lungs. Kind of experiment: Western blot of occludin and ZO-1 in mouse lungs. The settings on record: LPS 5 mg/kg. It counts as in vivo. The method, then:
as §1, with “Mass.). All LPS-challenged mice received 5 mg/kg of LPS (Escherichia coli 055:B5, 15,000,000 endotoxin units/mg protein; SIGMA-ALDRICH, St. Louis, Mo.) in 50 μl of phosphate-buffered saline (PBS) by aspiration, one day before gene transfer (n=5-11 mice/group).” for “Mass.).”
Western blots were performed as previously described in Lin, X., et al. Am J Respir Crit Care Med 183: 1689-97. […] After incubation with secondary antibody and development, bands were detected using the CHEMIDOC Imaging System (BIO-RAD, Hercules, Calif.) and quantified using the IMAGE STUDIO™ LITE software (LI-COR, Lincoln, Nebr.) or the IMAGE LAB software (BIO-RAD, Hercules, Calif.).

In the next experiment the test system is 16HBE14o-cells. The experiment is described as follows: Doxycycline-inducible β1 expression, immunoblot in 16HBE14o- cells. The class given is cell-based, human. The settings on record: 24 hours post transfection. How it is done: as §2, with “minutes.” for “minutes. The cells were resuspended in DMEM containing 10% FBS and plated on fibronectin coated plates.”
as §3
Given that the β1 subunit increased protein expressions of tight junctions in ATI cells, their localization in these cells was analyzed. […]

The target of experiment [6] is MRCKα of primary rat alveolar type I (ATI) cells (rat) (UniProt O54874). The experiment is described as follows: cell-based or functional assay.
UniProt O54874, sequence (O54874 whole entry): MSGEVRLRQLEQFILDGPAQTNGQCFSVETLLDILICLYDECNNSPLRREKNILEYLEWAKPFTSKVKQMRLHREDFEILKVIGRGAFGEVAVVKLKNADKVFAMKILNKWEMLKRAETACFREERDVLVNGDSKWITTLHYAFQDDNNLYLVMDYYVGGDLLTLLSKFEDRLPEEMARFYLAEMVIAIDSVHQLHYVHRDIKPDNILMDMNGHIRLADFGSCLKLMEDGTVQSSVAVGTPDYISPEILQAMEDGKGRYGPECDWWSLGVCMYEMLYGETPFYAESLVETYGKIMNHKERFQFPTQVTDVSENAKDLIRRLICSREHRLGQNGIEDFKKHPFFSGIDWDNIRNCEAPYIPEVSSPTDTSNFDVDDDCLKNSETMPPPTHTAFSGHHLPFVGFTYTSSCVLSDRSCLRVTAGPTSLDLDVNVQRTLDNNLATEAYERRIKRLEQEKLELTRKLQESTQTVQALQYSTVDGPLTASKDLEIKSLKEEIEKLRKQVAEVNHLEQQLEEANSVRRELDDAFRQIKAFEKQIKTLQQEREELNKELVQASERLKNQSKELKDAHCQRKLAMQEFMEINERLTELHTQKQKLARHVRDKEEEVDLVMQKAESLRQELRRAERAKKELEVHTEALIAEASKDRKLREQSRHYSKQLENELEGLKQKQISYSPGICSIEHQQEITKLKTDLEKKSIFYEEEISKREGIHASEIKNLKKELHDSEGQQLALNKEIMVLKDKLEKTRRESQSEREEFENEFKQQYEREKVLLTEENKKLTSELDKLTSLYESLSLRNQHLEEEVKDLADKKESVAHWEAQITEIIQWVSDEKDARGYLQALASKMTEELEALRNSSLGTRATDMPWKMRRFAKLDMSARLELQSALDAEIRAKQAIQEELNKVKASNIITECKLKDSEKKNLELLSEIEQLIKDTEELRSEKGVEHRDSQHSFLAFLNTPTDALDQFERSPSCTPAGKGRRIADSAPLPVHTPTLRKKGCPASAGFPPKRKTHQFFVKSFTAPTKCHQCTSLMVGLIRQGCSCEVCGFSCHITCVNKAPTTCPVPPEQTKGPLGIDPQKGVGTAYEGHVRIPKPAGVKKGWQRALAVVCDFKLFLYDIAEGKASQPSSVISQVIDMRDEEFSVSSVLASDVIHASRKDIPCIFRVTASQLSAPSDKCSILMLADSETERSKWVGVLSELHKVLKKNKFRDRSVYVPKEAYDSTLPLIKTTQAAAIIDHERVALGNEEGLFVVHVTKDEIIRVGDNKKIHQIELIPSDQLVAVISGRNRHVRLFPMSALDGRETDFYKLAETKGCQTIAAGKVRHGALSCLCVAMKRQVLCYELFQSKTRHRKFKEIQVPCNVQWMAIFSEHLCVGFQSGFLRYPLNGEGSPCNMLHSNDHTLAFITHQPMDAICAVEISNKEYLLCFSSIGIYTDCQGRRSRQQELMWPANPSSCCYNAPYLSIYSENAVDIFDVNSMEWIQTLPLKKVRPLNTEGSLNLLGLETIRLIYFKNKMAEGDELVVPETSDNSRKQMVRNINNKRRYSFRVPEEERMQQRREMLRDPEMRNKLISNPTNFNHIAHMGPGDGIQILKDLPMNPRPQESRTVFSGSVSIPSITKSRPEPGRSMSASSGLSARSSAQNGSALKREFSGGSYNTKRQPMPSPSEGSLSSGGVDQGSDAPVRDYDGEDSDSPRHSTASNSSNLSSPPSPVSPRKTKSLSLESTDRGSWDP

As for `CCC(NC(C)C)C(O)c1ccc(O)c2[nH]c(=O)ccc12` (stereo not drawn) [procaterol, Procaterol], in the experiment on mouse lungs, the “increase of AFC” value is listed as 145%.
As for `O=C(Nc1cn[nH]c1-c1ccccn1)c1nn(C2CCNCC2)cc1Cl` [BDP5290], in the experiment with ATI cells [1] (2 μM inhibitor), the “baseline TEER” value is recorded as “decreased” and the “β1 subunit-induced increase of barrier integrity (TEER) under MRCKα inhibition” value is “prevented β1 subunit-induced increase of barrier integrity”.
`C[C@@H]1O[C@@H](O[C@H]2C[C@@H](O)[C@]3(CO)[C@H]4[C@H](O)C[C@]5(C)[C@@H](C6=CC(=O)OC6)CC[C@]5(O)[C@@H]4CC[C@]3(O)C2)[C@H](O)[C@H](O)[C@H]1O` [ouabain]: in the experiment with ATI cells [2] (ATI cells transfected with rat β1, ouabain 10 nM, 100 nM or 1000 nM), the “β1-induced upregulation of occludin in presence of ouabain” value was “did not block the upregulation of occludin”.
Consider `Cc1ccc2c(c1)C(=O)C1(O)CCN(c3ccccc3)C1=N2` (stereo not drawn) [blebbistatin], for which, in the experiment on ATI cells [1] (pretreatment 20 μM), the “β1-induced increase in TEER under myosin II inhibition” value is “prevented the increase in TEER”. Besides, the “β1-induced upregulation of occludin in presence of blebbistatin” value with ATI cells [2] (ATI cells transfected with rat β1, blebbistatin 1, 10 or 100 uM) was “significantly suppress the upregulation of occludin”.
With lipopolysaccharide, the “increase of pulmonary leakage in response to LPS” value in the experiment with LPS-injured lungs [3] is recorded as “three- to four-fold”. Besides, the TEER after lipopolysaccharide entry in the experiment on ATI cells [1] (1 μg/ml, 24 hours) is “decreased TEER”. Further, the “permeability to 4 kD Dextran after lipopolysaccharide” value with ATI cells [4] is on record as “increased permeability”. For the same compound, in the experiment on LPS-injured lungs [5], the “levels of ZO-1 and occludin in lungs after LPS injury” value is recorded as “reduced levels”.
For the compound `C[C@H]1c2cccc(O)c2C(=O)C2=C(O)[C@]3(O)C(=O)C(C(N)=O)=C(O)[C@@H](N(C)C)[C@@H]3[C@@H](O)[C@@H]21` [doxycycline], the “doxycycline concentration of maximum induction of β1 subunit” value with 16HBE14o-cells was found to be 1000 ng/mL.
Consider “rat Na+, K+-ATPase β1 subunit (from UniProt P07340 1-304)”, for which the phosphorylation of myosin light chain 2 (MLC2) at Ser19, western blot after β1 subunit overexpression in ATI cells in experiment [6] is 2 fold.
